Measured values from patent US20060121449A1, “Method for selection of compounds which inhibit clonal cell growth and use thereof” (priority 2002, published 2006).
Entries after “also recorded” stand apart in the source; their conditions may differ. Like-named read-outs stand apart in the source and are kept apart here.

What was measured:
[1] = tested on: polyoma virus transformed BHK21/c13 cells, line S100T1; experiment: Collocation inhibition test: clonal growth in sparsely and densely seeded areas of a cell density gradient of S100T1 cells in soft agar (Exp 13, 17, 19-26); conditions: for Clonal growth, L low density area of cell gradient, High / Clonal growth, L low density area of cell gradient, Low / Effect on cell cloning in soft agar: preliminary results; for Clonal growth, L low density area of cell gradient, High / Clonal growth, L low density area of cell gradient, Low: Exp 13-18, 21-26; for Effect on cell cloning in soft agar: in words; for Clonal growth read on the 3rd day after seeding / Clonal growth read on the 6th day after seeding: Exp 17; for Compounds with significant inhibition of clonal growth of sparsely seeded cells: Exp 24, 180000 S100T1 cells/well;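 on Clonal growth, L low density area of cell gradient, High: grades rise with clonal growth and minus or plus-minus means none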;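 on Clonal growth, L low density area of cell gradient, Low: grades rise with clonal growth and minus or plus-minus means none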;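 on all read-outs here: soft agar cultures in 24-well plates with a cell density gradient in the top layer, compounds applied from DMSO stocks, clonal growth scored in sparse versus dense areas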
[2] = tested on: polyoma virus transformed BHK21/c13 cells, clone S100T1; experiment: Clonal test: clonal growth of S100T1 cells in soft agar (Exp 2, 4, 6, 15, 16); format: cell-based, hamster; conditions: for Significance of results: Exp 16, read after 14 days, ca. 223 μM; for Colony inhibiting activity for dosage within a range that might be therapeutic: Exp 16, about 40000 S100T1 cells/well; for Effect on clonal growth at 500 μM: DMSO toxicity might interfere; for Clonal growth: Exp 15, plate read the 5th day
Description: The clonal test comprises: • 1. seeding cells in soft agar optionally containing growth factor(s); • 2. handling or incubation of special gels (e.g. ultra low gelling temperature agarose), including the production of cell density gradients. • 3. incubating in suitable temperature and atmosphere and; • 4. regular monitoring of the cells and development of clones.
The clonal test can be directed in fluid medium or in soft agar medium. Usually only transformed cells will form clones in soft agar.
After seeding and mixing, the tubes were placed in the refrigerator for about 1 hour to consolidate the ultra low melting point agarose.
120000 S100T1 cells of a polyoma virus transformed BHK21/c13 cell line, were seeded in 1 ml soft agar medium in Falcon 50 ml centrifuge tubes. […] On the top of the agar layer 0.5 ml fluid medium was added.
Agar cultures were prepared in wells of 24 well Falcon tissue culture plate. […] Insulin (Actrapid, Novo) was added in a concentration of 0.1 i.u./ml to BHK21/c13 cell cultures only.
The cells were all single cells. Each well received 32000 cells (Table 4). Plate: 24 wells Falcon tissue culture plate received a bottom layer composed as in Table 3:
The cells were all single cells.
The wells contained two layers, each of 0.3 ml agar.
The agarose was added to double distilled water and solved by heating in micro oven.

[3] = Exp 15, 32000 S100T1 cells/well
[4] = Low: #1 Colchicine 0.1, #2 Podophyllotoxin 0.3, #3 Etoposide 20, #4 4-OH—OPB 0.67 μM in wells, #5 DMSO 1.16 μl
[5] = Medium: #1 Colchicine 0.3, #2 Podophyllotoxin 0.9, #3 Etoposide 60, #4 4-OH—OPB 2 μM in wells, #5 DMSO 6.8 μl
[6] = Summary Table 3 of analogue tests (experiments 22-25), H (high cell density), High concentration
[7] = Summary Table 3 of analogue tests (experiments 22-25), H (high cell density), Low concentration
[8] = Summary Table 3 of analogue tests (experiments 22-25), H (high cell density), Medium concentration
[9] = Summary Table 3 of analogue tests (experiments 22-25), L (low cell density), High concentration
[10] = Summary Table 3 of analogue tests (experiments 22-25), L (low cell density), Low concentration
[11] = Summary Table 3 of analogue tests (experiments 22-25), L (low cell density), Medium concentration
[12] = Exp 15, 5th day, Low conc., μM in wells: No 1 (4-OH—OPB) 2, 2 (Colchicine) 0.01, 3 (Diphenylhydantoin) 10, 4 (Podophyllotoxin) 0.03, 5 (Piroxicam) 5, 6 (Diclofenak) 10, 7 (Ibuprofen) 100, 8 (Naproxen) 50, 9 (Acetylsalicylic acid) 100, ” = as line above
[13] = High conc., μM in wells: No 1 (4-OH—OPB) 20, 2 (Colchicine) 0.1, 3 (Diphenylhydantoin) 100, 4 (Podophyllotoxin) 0.3, 5 (Piroxicam) 50, 6 (Diclofenak) 100, 7 (Ibuprofen) 1000, 8 (Naproxen) 500, 9 (Acetylsalicylic acid) 1000
[14] = Low conc., μM in wells: No 1 (4-OH—OPB) 2, 2 (Colchicine) 0.01, 3 (Diphenylhydantoin) 10, 4 (Podophyllotoxin) 0.03, 5 (Piroxicam) 5, 6 (Diclofenak) 10, 7 (Ibuprofen) 100, 8 (Naproxen) 50, 9 (Acetylsalicylic acid) 100
[15] = 4-OH-OPB analogues, S100T1 in soft agar, high concentration
[16] = 4-OH-OPB analogues, S100T1 in soft agar, medium concentration
[17] = Experiment 24, H: area with high cell density, High concentration, 48 hours
[18] = Experiment 24, H: area with high cell density, Low concentration, 48 hours
[19] = Experiment 24, H: area with high cell density, Medium concentration, 48 hours
[20] = Experiment 24, L: area with low cell density, High concentration, 48 hours
[21] = Experiment 24, L: area with low cell density, Low concentration, 48 hours
[22] = Experiment 24, L: area with low cell density, Medium concentration, 48 hours

CC(=O)Oc1ccccc1C(=O)O [Acetylsalicylic acid]
Clonal growth, L low density area of cell gradient, High ([1]; high concentration): ((+)) | Clonal growth, L low density area of cell gradient, Low ([1]; low concentration): (+) | Effect on cell cloning in soft agar [1]: Possible inhibition of clonal growth | Effect on clonal growth at 100 μM [2, 3]: possibly inhibited significantly, but not completely | Effect on clonal growth at 1000 μM ([2]; Exp 15, 32000 S100T1 cells/well, 30 μl DMSO in the well might be toxic): the inhibition is complete | Significance of results ([2]; Acetylsalicylic acid No 10): probable | Colony inhibiting activity for dosage within a range that might be therapeutic [2]: probably had a colony inhibiting activity | Significance ([2]; Exp 16 day 14, Acetylsalicylic acid No 10, 215 μM): probable | Growth ([2]; Exp 16 day 14, Acetylsalicylic acid No 10, 215 μM in wells): (+)) | Growth ([2]; Exp 16 day 14, Acetylsalicylic acid No 10, 464 μM in wells): (+)) | Significance ([2]; Exp 16 day 14, Acetylsalicylic acid No 10, 464 μM, doubtful because the solvent DMSO might be inhibiting): doubtful* | Significance ([2]; Exp 16 day 21, Acetylsalicylic acid No 10, 215 μM): possible | Growth ([2]; Exp 16 day 21, Acetylsalicylic acid No 10, 215 μM in wells): (+) | Growth ([2]; Exp 16 day 21, Acetylsalicylic acid No 10, 464 μM in wells): (+)) | Significance ([2]; Exp 16 day 21, Acetylsalicylic acid No 10, 464 μM, *see conclusion (DMSO)): doubtful* | Anti-clonal effect, summary of Exp 15 ([2]; S100T1 in soft agar): showed possible clonal inhibition at low

COc1ccc2cc([C@H](C)C(=O)O)ccc2c1 [Naproxen]
Effect on cell cloning in soft agar [1]: Clonal inhibition possible | Effect on clonal growth at 500 μM [2, 3]: inhibited significantly | Effect on clonal growth at 500 μM ([2]; Exp 15, 32000 S100T1 cells/well, listed as Naproxea): probably inhibited significantly | Significance of results ([2]; Naproxen No 9): possible | Colony inhibiting activity for dosage within a range that might be therapeutic [2]: probably had a colony inhibiting activity; also recorded: the same activity possibly existed | Significance ([2]; Exp 16 day 14, Naproxen No 9, 108 μM): doubtful | Growth ([2]; Exp 16 day 14, Naproxen No 9, 108 μM in wells): (+ | Significance ([2]; Exp 16 day 14, Naproxen No 9, 232 μM): possible* | Growth ([2]; Exp 16 day 14, Naproxen No 9, 232 μM in wells): (+) | Significance ([2]; Exp 16 day 21, Naproxen No 9, 108 μM): doubtful | Growth ([2]; Exp 16 day 21, Naproxen No 9, 108 μM in wells): (+ | Significance ([2]; Exp 16 day 21, Naproxen No 9, 232 μM): possible* | Growth ([2]; Exp 16 day 21, Naproxen No 9, 232 μM in wells): (+) | Anti-clonal effect, summary of Exp 15 ([2]; S100T1 in soft agar): showed possible clonal inhibition at low | Anti-clonal effect, summary of Exp 16 ([2]; S100T1 in soft agar): Ibuprofen and Naproxen possibly inhibited and Acetyl

Oc1ccc(N=Nc2ccccc2)cc1 [#1, p-hydroxy-azobenzene]
Clonal growth, H: high density area of cell gradient, Low [1]: +++ | Clonal growth, H: high density area of cell gradient, Medium [1]: +++ | Clonal growth, L: low density area of cell gradient, High [1]: +− | Clonal growth, L: low density area of cell gradient, Low [1]: ++ | Clonal growth, L: low density area of cell gradient, Medium [1]: ++ | Clonal inhibition by 4-OH-OPB analogues, summary of Exp 22-25 [1]: complete inhibition of growth in sparsely seeded areas | Clonal growth read on the 3rd day after seeding ([1]; High: #1 Colchicine 1, #2 Podophyllotoxin 3, #3 Etoposide 200, #4 4-OH—OPB 6.7 μM in wells, #5 DMSO 29.2 μl): − | Clonal growth read on the 3rd day after seeding [1, 4]: ++ | Clonal growth read on the 6th day after seeding [1, 4]: + | Clonal growth read on the 3rd day after seeding [1, 5]: ++ | Clonal growth read on the 6th day after seeding [1, 5]: + | Clonal growth ([1]; Experiment 23, A (area with high cell density), High concentration, 48 hours): +(+) | Clonal growth ([1]; Experiment 23, A (area with high cell density), Low concentration, 48 hours): +++ | Clonal growth ([1]; Experiment 23, A (area with high cell density), Medium concentration, 48 hours): +++ | Clonal growth ([1]; Experiment 23, B (area with low cell density), High concentration, 48 hours): +− | Clonal growth ([1]; Experiment 23, B (area with low cell density), Low concentration, 48 hours): ++ | Clonal growth ([1]; Experiment 23, B (area with low cell density), Medium concentration, 48 hours): ++ | Clonal growth [1, 6]: +(+) | Clonal growth [1, 7]: +++ | Clonal growth [1, 8]: +++ | Clonal growth [1, 9]: +− | Clonal growth [1, 10]: ++ | Clonal growth [1, 11]: ++ | Significance ([2]; Exp 15, 5th day, High conc., μM in wells: No 1 (4-OH—OPB) 20, 2 (Colchicine) 0.1, 3 (Diphenylhydantoin) 100, 4 (Podophyllotoxin) 0.3, 5 (Piroxicam) 50, 6 (Diclofenak) 100, ” = as line above): yes | Significance [2, 12]: yes | Clonal growth [2, 13]: − | Clonal growth [2, 14]: −

O=C(O)Cc1ccccc1Nc1c(Cl)cccc1Cl [Diclofenac, reference compound]
Clonal growth, L low density area of cell gradient, High ([1]; high concentration): ++ | Clonal growth, L low density area of cell gradient, Low ([1]; low concentration): ++(+) | Effect on cell cloning in soft agar [1]: A possible increase of clonal growth | Effect on clonal growth at 10 μM [2, 3]: probable significant increase in clonal growth | Effect on clonal growth at 10-100 μM [2, 3]: no significant inhibition | Anti-clonal effect, summary of Exp 15 ([2]; S100T1 in soft agar): increased clonal growth at low concentration

Cc1ccc(C2(O)C(=O)N(c3ccccc3)N(c3ccccc3)C2=O)cc1 [#8, 1,2-diphenyl-4-hydroxy-4-(4-methylphenyl)-3,5-pyrazolidinedione]
Clonal growth, H: high density area of cell gradient, High [1, 15]: ++ | Clonal growth, L: low density area of cell gradient, High [1, 15]: + | Clonal growth, H: high density area of cell gradient, Medium [1, 16]: ++ | Compounds with significant inhibition of clonal growth of sparsely seeded cells [1]: None | Clonal growth [1, 17]: +(+) | Clonal growth [1, 18]: ++ | Clonal growth [1, 19]: ++ | Clonal growth [1, 20]: +(+) | Clonal growth [1, 21]: + | Clonal growth [1, 22]: +(+) | Clonal growth [1, 6]: ++ | Clonal growth [1, 7]: +(+) | Clonal growth [1, 8]: ++ | Clonal growth [1, 9]: + | Clonal growth [1, 10]: +(+) | Clonal growth [1, 11]: +(+) | Significance [2, 12]: ” | Clonal growth [2, 13]: −

CN1C(C(=O)Nc2ccccn2)=C(O)c2ccccc2S1(=O)=O [Piroxicam]
Clonal growth, L low density area of cell gradient, High ([1]; high concentration): + | Clonal growth, L low density area of cell gradient, Low ([1]; low concentration): ++ | Effect on cell cloning in soft agar [1]: Clonal inhibition possible | Effect on clonal growth at 50 μM [2, 3]: inhibited doubtfully; also recorded: possibly inhibited significantly | Effect on clonal growth at 5-50 μM [2, 3]: did not inhibit clonal growth significantly | Anti-clonal effect, summary of Exp 15 ([2]; S100T1 in soft agar): Piroxicam inhibited less, but similarly

O=C1N(c2ccccc2)N(c2ccccc2)C(=O)C1(O)Cc1ccccc1 [#9, 4-benzyl-1,2-diphenyl-4-hydroxy-3,5-pyrazolidinedione]
Clonal growth, H: high density area of cell gradient, High [1, 15]: ++ | Clonal growth, L: low density area of cell gradient, High [1, 15]: + | Clonal growth, H: high density area of cell gradient, Low ([1]; 4-OH-OPB analogues, S100T1 in soft agar, low concentration): ++(+) | Clonal growth, H: high density area of cell gradient, Medium [1, 16]: +++ | Clonal growth, L: low density area of cell gradient, Medium [1, 16]: + | Compounds with significant inhibition of clonal growth of sparsely seeded cells [1]: None | Clonal growth [1, 17]: ++ | Clonal growth [1, 18]: ++(+) | Clonal growth [1, 19]: +++ | Clonal growth [1, 20]: + | Clonal growth [1, 21]: +(+) | Clonal growth [1, 22]: + | Clonal growth [1, 6]: ++ | Clonal growth [1, 7]: ++(+) | Clonal growth [1, 8]: +++ | Clonal growth [1, 9]: + | Clonal growth [1, 10]: +(+) | Clonal growth [1, 11]: + | Significance [2, 12]: ” | Clonal growth [2, 13]: − | Clonal growth [2, 14]: +
